These are literature values, as cited in patent publication EP4810529A1, “1,1-DICYANOETHYLENE-CONTAINING COMPOSITION, CURED PRODUCT, LAMINATE, AND METHOD FOR PRODUCING 1,1-DICYANOETHYLENE-CONTAINING COMPOSITION” (Kuraray Co., Ltd., priority 2023, dated 2025).

For orientation: pKa means the negative logarithm of the acid dissociation constant.

The structures appear in SMILES notation.

The conditions of this data set: logarithmic acid dissociation constant, room temperature, aqueous system, first stage.

`O=[N+]([O-])O` [nitric acid]: the pKa is given as -1.3.
